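Values below derive from 48-hour exposures of cells grown in 96-well plates, with endpoints linearly interpolated between the two concentrations bracketing the appropriate inhibition level. GI50 is the concentration that inhibits growth by half. TGI: total growth inhibition.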
How the values were obtained:
Assay in all cases: NCI anticancer screen, dose series, 48 h
OVCAR-5 ovarian = test system: OVCAR-5 ovarian
MOLT-4 leukemia = test system: MOLT-4 leukemia
MDA-MB-231 breast = test system: MDA-MB-231 breast
SNB-19 CNS = test system: SNB-19 CNS
NCI-H226 lung = test system: NCI-H226 lung
U251 CNS = test system: U251 CNS
SN12C renal = test system: SN12C renal
SK-MEL-2 melanoma = test system: SK-MEL-2 melanoma
NCI/ADR-RES ovarian = test system: NCI/ADR-RES ovarian
NCI-H460 lung = test system: NCI-H460 lung
PC-3 prostate = test system: PC-3 prostate
NCI-H23 lung = test system: NCI-H23 lung
UACC-62 melanoma = test system: UACC-62 melanoma
SF-268 CNS = test system: SF-268 CNS
HOP-92 NSCLC = test system: HOP-92 NSCLC
M14 melanoma = test system: M14 melanoma
TK-10 renal = test system: TK-10 renal
SK-MEL-5 melanoma = test system: SK-MEL-5 melanoma
HT29 colon = test system: HT29 colon
EKVX NSCLC = test system: EKVX NSCLC
A498 renal = test system: A498 renal
HCT-116 colon = test system: HCT-116 colon
UO-31 renal = test system: UO-31 renal
SNB-75 CNS = test system: SNB-75 CNS
HL-60(TB) leukemia = test system: HL-60(TB) leukemia
ACHN renal = test system: ACHN renal
HCT-15 colon = test system: HCT-15 colon
HS 578T breast = test system: HS 578T breast
IGROV1 ovarian = test system: IGROV1 ovarian

c1ccc2nc(N/N=C3\CCCCC3C3CCCCC3)ccc2c1 (configuration not stated)
TGI (OVCAR-5 ovarian): 21.5 µM | GI50 (MOLT-4 leukemia): 3.2 µM | TGI (MOLT-4 leukemia): 17.1 µM | GI50 (MDA-MB-231 breast): 5.49 µM | TGI (MDA-MB-231 breast): 20.5 µM | GI50 (SNB-19 CNS): 11.4 µM | TGI (SNB-19 CNS): 24.6 µM | GI50 (NCI-H226 lung): 6.3 µM | TGI (NCI-H226 lung): 22.9 µM | GI50 (U251 CNS): 6.44 µM | TGI (U251 CNS): 20.8 µM | GI50 (SN12C renal): 6.54 µM | TGI (SN12C renal): 21.1 µM | GI50 (SK-MEL-2 melanoma): 3.48 µM | TGI (SK-MEL-2 melanoma): 16.6 µM | GI50 (NCI/ADR-RES ovarian): 5.29 µM | TGI (NCI/ADR-RES ovarian): 21 µM | GI50 (NCI-H460 lung): 3.84 µM | TGI (NCI-H460 lung): 16.5 µM | GI50 (PC-3 prostate): 3.07 µM | TGI (PC-3 prostate): 17.6 µM | GI50 (NCI-H23 lung): 3.89 µM | TGI (NCI-H23 lung): 17.3 µM | GI50 (UACC-62 melanoma): 3.89 µM | TGI (UACC-62 melanoma): 15.6 µM | GI50 (SF-268 CNS): 10.8 µM | TGI (SF-268 CNS): 24.9 µM | GI50 (HOP-92 NSCLC): 2.2 µM | TGI (HOP-92 NSCLC): 10 µM | GI50 (M14 melanoma): 10.3 µM | TGI (M14 melanoma): 26.5 µM | GI50 (TK-10 renal): 6.72 µM | TGI (TK-10 renal): 19.5 µM | GI50 (SK-MEL-5 melanoma): 2.58 µM | TGI (SK-MEL-5 melanoma): 10.4 µM | GI50 (HT29 colon): 3.7 µM | TGI (HT29 colon): 14.6 µM | GI50 (EKVX NSCLC): 5.22 µM | TGI (EKVX NSCLC): 20.2 µM | GI50 (A498 renal): 11.4 µM | TGI (A498 renal): 27.9 µM | GI50 (HCT-116 colon): 3.32 µM | TGI (HCT-116 colon): 13.5 µM | GI50 (UO-31 renal): 2.89 µM | TGI (UO-31 renal): 14.4 µM | GI50 (SNB-75 CNS): 11.1 µM | TGI (SNB-75 CNS): 30.9 µM | GI50 (HL-60(TB) leukemia): 3.74 µM | TGI (HL-60(TB) leukemia): 25.6 µM | GI50 (ACHN renal): 8.02 µM | TGI (ACHN renal): 20.8 µM | GI50 (HCT-15 colon): 3.52 µM | TGI (HCT-15 colon): 14.8 µM | GI50 (HS 578T breast): 10.4 µM | TGI (HS 578T breast): 30.9 µM | GI50 (IGROV1 ovarian): 2.92 µM | TGI (IGROV1 ovarian): 15.4 µM
